Values after ≈ are worked out from the molar mass of the structure shown. Peptide text beside a SMILES is read from it.
Columns and labels:
Format in all cases: functional
[1] = test system: Pichia kudriavzevii; experiment: Antifungal activity against Candida krusei IFM56881 measured after 24 to 48 hrs by CLSI method; conditions: time 24-48 hrs
[2] = test system: Cryptococcus neoformans; experiment: Antifungal activity against Cryptococcus neoformans H99 measured after 24 to 48 hrs by CLSI method; conditions: time 24-48 hrs
[3] = test system: Candida parapsilosis; experiment: Antifungal activity against Candida parapsilosis ATCC 22019 measured after 24 to 48 hrs by CLSI method; conditions: Lodderomyces parapsilosis, time 24-48 hrs
[4] = test system: Candida albicans; experiment: Antifungal activity against Candida albicans SC5314 measured after 24 to 48 hrs by CLSI method; conditions: time 24-48 hrs

CC(C)[C@H](NC(=O)[C@H](CCCNC(=N)N)NC(=O)[C@H](Cc1ccccc1)NC(=O)[C@H](CS)NC(=O)[C@H](Cc1c[nH]c2ccccc12)NC(=O)[C@H](CCCNC(=N)N)NC(=O)[C@@H](N)CCCNC(=N)N)C(=O)N[C@@H](CS)C(=O)N[C@@H](Cc1ccc(O)cc1)C(=O)N[C@@H](CCCNC(=N)N)C(=O)NCC(=O)N[C@@H](Cc1ccccc1)C(=O)N[C@@H](CS)C(=O)N[C@@H](Cc1ccc(O)cc1)C(=O)N[C@@H](CCCNC(=N)N)C(=O)N[C@@H](CCCCN)C(=O)N[C@@H](CS)C(=O)N[C@@H](CCCNC(=N)N)C(=O)O (H-RRWCFRVCYRGFCYRKCR-OH)
MIC [1]: 4.07 µM (≈ 10 µg/mL)
MIC [2]: 1.02 µM (≈ 2.51 µg/mL)
MIC [3]: 1.02 µM (≈ 2.51 µg/mL)
MIC [4]: 4.07 µM (≈ 10 µg/mL)

CC[C@H](C)[C@H](NC(=O)[C@H](C)NC(=O)[C@H](CS)NC(=O)[C@H](CO)NC(=O)[C@@H](NC(=O)[C@H](Cc1ccccc1)NC(=O)[C@@H](N)Cc1ccc(O)cc1)[C@@H](C)CC)C(=O)N[C@@H](Cc1cnc[nH]1)C(=O)N[C@@H](Cc1ccccc1)C(=O)N[C@@H](CCCCN)C(=O)N[C@H](C(=O)N[C@@H](CC(C)C)C(=O)N[C@@H](CCCCN)C(=O)N[C@H](C(=O)N[C@@H](CCCNC(=N)N)C(=O)N[C@@H](CO)C(=O)N[C@@H](C)C(=O)N[C@@H](C)C(=O)N[C@@H](CCCCN)C(=O)N[C@@H](CCCNC(=N)N)C(=O)N[C@@H](CCCNC(=N)N)C(=O)N[C@@H](CCC(=O)O)C(=O)N[C@@H](Cc1cnc[nH]1)C(=O)N[C@H](C(=O)N[C@@H](CCCCN)C(=O)N[C@@H](CC(C)C)C(=O)N[C@@H](CCCNC(=N)N)C(=O)O)[C@@H](C)O)[C@@H](C)CC)[C@@H](C)CC (H-YFISCAIHFKILKIRSAAKRREHTKLR-OH)
MIC [1]: 19.5 µM (≈ 64 µg/mL)
MIC [2]: 38.9 µM (≈ 128 µg/mL)
MIC [3]: 77.9 µM (≈ 256 µg/mL)
MIC [4]: 77.9 µM (≈ 256 µg/mL)

CC[C@H](C)[C@H](NC(=O)[C@H](Cc1cnc[nH]1)NC(=O)[C@H](C)NC(=O)[C@H](CC(C)C)NC(=O)[C@H](CC(C)C)NC(=O)[C@H](CCCCN)NC(=O)[C@H](CCSC)NC(=O)[C@@H](NC(=O)[C@@H](NC(=O)[C@H](Cc1cnc[nH]1)NC(=O)[C@H](Cc1c[nH]c2ccccc12)NC(=O)[C@@H](NC(=O)[C@H](CCCCN)NC(=O)[C@H](Cc1cnc[nH]1)NC(=O)[C@@H](NC(=O)[C@H](CCCCN)NC(=O)[C@H](Cc1cnc[nH]1)NC(=O)[C@@H](N)Cc1ccc(O)cc1)[C@@H](C)CC)C(C)C)[C@@H](C)CC)[C@@H](C)CC)C(=O)O (H-YHKIHKVWHIIMKLLAHI-OH)
MIC [1]: 7.02 µM (≈ 16 µg/mL)
MIC [2]: 7.02 µM (≈ 16 µg/mL)
MIC [3]: 14 µM (≈ 32 µg/mL)
MIC [4]: 28.1 µM (≈ 64 µg/mL)

CC[C@H](C)[C@H](NC(=O)[C@H](CCCNC(=N)N)NC(=O)CNC(=O)[C@H](CC(C)C)NC(=O)[C@H](Cc1ccccc1)NC(=O)[C@H](CCC(N)=O)NC(=O)[C@H](Cc1ccccc1)NC(=O)[C@@H](N)C(C)C)C(=O)N[C@H](C(=O)N[C@@H](Cc1cnc[nH]1)C(=O)N[C@@H](Cc1cnc[nH]1)C(=O)N[C@H](C(=O)NCC(=O)N[C@@H](CC(N)=O)C(=O)N[C@@H](Cc1ccccc1)C(=O)N[C@H](C(=O)N[C@@H](Cc1cnc[nH]1)C(=O)NCC(=O)N[C@@H](Cc1ccccc1)C(=O)N[C@@H](CO)C(=O)N[C@@H](Cc1cnc[nH]1)C(=O)N[C@H](C(=O)N[C@@H](Cc1ccccc1)C(=O)O)C(C)C)C(C)C)C(C)C)[C@@H](C)CC [Clavanin B] (H-VFQFLGRIIHHVGNFVHGFSHVF-OH)
MIC [1]: > 95 µM
MIC [2]: > 95 µM
MIC [3]: > 95 µM
MIC [4]: > 95 µM

Source: ChEMBL document CHEMBL5113381, “Large-Scale Screening of Antifungal Peptides Based on Quantitative Structure-Activity Relationship” (2022)
